Laboratory results published in patent US8039465B2, “Cytoskeletal active compounds, composition and use” (priority 2005, dated 2011).

Legend:
non-muscle actin = assay: Actin Polymerization Inhibition Assay (Actin Polymerization Biochem Kit, pyrene actin fluorescence); type: biochemical; details: inhibition of actin polymerization (pyrene-labeled actin fluorescence increase) at standard test concentration of 10 uM
Description: The quantative effects of the test compounds on the kinetics of actin polymerization were determined using a non-muscle actin polymerization kit, Actin Polymerization Biochem Kit, according to the instructions of the manufacturer (Cytoskeleton Inc; Denver, Colo.). This assay evaluates the fluorescence intensity of pyrene actin, which is greater for polymeric actin than for monomeric actin. The ability of the test compounds to inhibit actin assembly was determined by measuring their ability to inhibit this increase in the fluorescence intensity of the pyrene-labeled actin. Results were expressed as the percent inhibition measured at a standard test concentration of 10 uM.

NIH/3T3 cells = assay: NIH/3T3 Cell Morphology Assay (phalloidin staining, degree of actin disruption); type: cell-based; details: 30 minutes at 37° C., 10 nM to 100 uM tested, TRITC-phalloidin imaging
Description: NIH/3T3 cells were grown in DMEM-H containing glutamine and 10% Colorado Calf Serum. Cells were passaged regularly prior to reaching confluence. Eighteen to 24 hours prior to experimentation, the cells were plated onto Poly-L-Lysine-coated glass coverslips. On the day of experimentation, the cell culture medium was removed and was replaced with medium containing from 10 nM to 100 uM of the test compound, and the cells were incubated for 30 minutes at 37° C. The culture medium was then removed and the cells were washed with warmed PBS and fixed for 10 minutes with warmed 4% paraformaldehyde. The cells were permeabilized with 0.5% Triton-X, stained with TRITC-conjugated phalloidin and imaged using a Nikon Eclipse E600 epifluorescent microscope to determine the degree of actin disruption. Results were expressed as the concentration at which complete disruption of the actin cytoskeleton was observed.

SMILES | Percent inhibition at 10 uM (non-muscle actin) [%] | Concentration giving complete actin disruption (NIH/3T3 cells) [µM]
C=CCCC[C@@H]1C[C@@H](OC(=O)/C=C(/C)CCC=C)C[C@](O)([C@@H]2CSC(=O)N2)O1 [Compound 1, (Z)-((2R,4R,6R)-2-Hydroxy-2-((R)-2-oxothiazolidin-4-yl)-6-(pent-4-enyl)-tetrahydro-2H-pyran-4-yl) 3-Methylhepta-2,6-dienoate] | 52.3 | 
C=CCCC[C@@H]1C[C@@H](NC(=O)/C=C(/C)CCC=C)C[C@](O)([C@@H]2CSC(=O)N2)O1 [Compound 1a, (Z)-N-((2R,4R,6R)-2-Hydroxy-2-((R)-2-oxothiazolidin-4-yl)-6-(pent-4-enyl)-tetrahydro-2H-pyran-4-yl)-3-methylhepta-2,6-dienamide] | 32.4 | 
C=CCCC[C@@H]1C[C@@H](OC(=O)c2ccccc2)C[C@](O)([C@@H]2CSC(=O)N2)O1 [Compound 4, (2R,4R,6R)-2-Hydroxy-2-((R)-2-oxothiazolidin-4-yl)-6-(pent-4-enyl)-tetrahydro-2H-pyran-4-yl Benzoate] | 52.0 | 
C=CCCC[C@@H]1C[C@@H](OC(=O)c2ccc(OC)cc2)C[C@](O)([C@@H]2CSC(=O)N2)O1 [Compound 4a, (2R,4R,6R)-2-Hydroxy-2-((R)-2-oxothiazolidin-4-yl)-6-(pent-4-enyl)-tetrahydro-2H-pyran-4-yl 4-Methoxybenzoate] | 42.2 | 
C=CCCC[C@@H]1C[C@@H](OC(=O)c2ccc(S(C)(=O)=O)cc2)C[C@](O)([C@@H]2CSC(=O)N2)O1 [Compound 4b, (2R,4R,6R)-2-Hydroxy-2-((R)-2-oxothiazolidin-4-yl)-6-(pent-4-enyl)-tetrahydro-2H-pyran-4-yl 4-(Methylsulfonyl)benzoate] | 45.6 | 
C/C1=C/C(=O)O[C@@H]2C[C@@H](CCC/C=C\CC1)O[C@@](O)([C@@H]1CSC(=O)N1)C2 [Compound 8, (R)-4-((1R,4Z,8Z,13R,15R)-15-Hydroxy-5-methyl-3-oxo-2,14-dioxa-bicyclo[11.3.1]heptadeca-4,8-dien-15-yl)thiazolidin-2-one] | 69.9 | 5
C/C1=C/C(=O)O[C@@H]2C[C@@H](CCC/C=C/CC1)O[C@@](O)([C@@H]1CSC(=O)N1)C2 [Compound 8a, (R)-4-((1R,4Z,8E,13R,15R)-15-Hydroxy-5-methyl-3-oxo-2,14-dioxa-bicyclo[11.3.1]heptadeca-4,8-dien-15-yl)thiazolidin-2-one] | 67.2 | 15
C/C1=C/C(=O)O[C@@H]2C[C@@H](CC[C@H](C)/C=C/CC1)O[C@@](O)([C@@H]1CSC(=O)N1)C2 [Compound 8b, (R)-4-((1R,4Z,8E,10S,13R,15R)-15-Hydroxy-5,10-dimethyl-3-oxo-2,14-dioxa-bicyclo[11.3.1]heptadeca-4,8-dien-15-yl)thiazolidin-2-one] | 61.7 | 25
C/C1=C/C(=O)N[C@@H]2C[C@@H](CCC/C=C\CC1)O[C@@](O)([C@@H]1CSC(=O)N1)C2 [Compound 8c, (1R,4Z,8Z,13R,15R)-15-Hydroxy-5-methyl-15-((R)-2-oxothiazolidin-4-yl)-14-oxa-2-aza-bicyclo[11.3.1]heptadeca-4,8-dien-3-one] | 44.9 | 
C/C1=C/C(=O)O[C@@H]2C[C@@H](CCCCCCC1)O[C@@](O)([C@@H]1CSC(=O)N1)C2 [Compound 10, (R)-4-((1R,13R,15R,Z)-15-Hydroxy-5-methyl-3-oxo-2,14-dioxa-bicyclo[11.3.1]heptadec-4-en-15-yl)thiazolidin-2-one] | 44.1 | 
O=C1CCCC/C=C\CCC[C@@H]2C[C@H](C[C@](O)([C@@H]3CSC(=O)N3)O2)O1 [Compound 10a, (R)-4-((1R,13R,15R,Z)-15-Hydroxy-3-oxo-2,14-dioxa-bicyclo[11.3.1]heptadec-8-en-15-yl)thiazolidin-2-one] | 14.0 | 
O=C1CCCCCCCCC[C@@H]2C[C@H](C[C@](O)([C@@H]3CSC(=O)N3)O2)O1 [Compound 10b, (R)-4-((1R,13R,15R)-15-Hydroxy-3-oxo-2,14-dioxa-bicyclo[11.3.1]heptadecan-15-yl)thiazolidin-2-one] | 21.8 | 
O=C1CCCCC/C=C/CCC[C@@H]2C[C@H](C[C@](O)([C@@H]3CSC(=O)N3)O2)O1 [Compound 10c, (R)-4-((1R,14R,16R,E)-16-Hydroxy-3-oxo-2,15-dioxa-bicyclo[12.3.1]octadec-9-en-16-yl)thiazolidin-2-one] | 21.7 | 
O=C1CCCCCCCCCC[C@@H]2C[C@H](C[C@](O)([C@@H]3CSC(=O)N3)O2)O1 [Compound 10d, (R)-4-((1R,14R,16R)-16-Hydroxy-3-oxo-2,15-dioxa-bicyclo[12.3.1]octadecan-16-yl)thiazolidin-2-one] | 10.4 | 
